Patent US20250114345A1, “COMPOUNDS AND COMPOSITIONS AS CBP/P300 DEGRADERS AND USES THEREOF” (Oncopia Therapeutics, Inc. d/b/a/ SK Life Science Labs, priority 2023, published 2025)

How the values were obtained:
[1] = biological target: T1, CBP (Homo sapiens, UniProt Q92793); assay: CBP degradation, HiBit technology in A549 CBP HiBit cells (24 h); type: cell-based; settings: 24 hrs post treatment
T1 construct: host or cells: A549 CBP HiBit cells
Outline: (§1)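 Cells: A549 HiBiT-tagged lines, 0.2×10^4/well, F-12K + 10% HI-FBS, equilibrated overnight. Tx: serial dilution of cpd (10 mM DMSO stock). Readout: HiBiT lytic reagent, 10 min RT shaking, luminescence → potency, Dmax.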

[2] = biological target: T2, p300 (Homo sapiens, UniProt Q09472); assay: P300 degradation, HiBit technology in A549 P300 HiBit cells (2 h); type: cell-based; settings: 2 hrs post treatment; for Dmax: A549, A549 P300 HiBit cells; for DC50: A549 P300 HiBit cells
T2 construct: host or cells: A549 P300 HiBit cells
T2 sequence (Q09472 whole entry): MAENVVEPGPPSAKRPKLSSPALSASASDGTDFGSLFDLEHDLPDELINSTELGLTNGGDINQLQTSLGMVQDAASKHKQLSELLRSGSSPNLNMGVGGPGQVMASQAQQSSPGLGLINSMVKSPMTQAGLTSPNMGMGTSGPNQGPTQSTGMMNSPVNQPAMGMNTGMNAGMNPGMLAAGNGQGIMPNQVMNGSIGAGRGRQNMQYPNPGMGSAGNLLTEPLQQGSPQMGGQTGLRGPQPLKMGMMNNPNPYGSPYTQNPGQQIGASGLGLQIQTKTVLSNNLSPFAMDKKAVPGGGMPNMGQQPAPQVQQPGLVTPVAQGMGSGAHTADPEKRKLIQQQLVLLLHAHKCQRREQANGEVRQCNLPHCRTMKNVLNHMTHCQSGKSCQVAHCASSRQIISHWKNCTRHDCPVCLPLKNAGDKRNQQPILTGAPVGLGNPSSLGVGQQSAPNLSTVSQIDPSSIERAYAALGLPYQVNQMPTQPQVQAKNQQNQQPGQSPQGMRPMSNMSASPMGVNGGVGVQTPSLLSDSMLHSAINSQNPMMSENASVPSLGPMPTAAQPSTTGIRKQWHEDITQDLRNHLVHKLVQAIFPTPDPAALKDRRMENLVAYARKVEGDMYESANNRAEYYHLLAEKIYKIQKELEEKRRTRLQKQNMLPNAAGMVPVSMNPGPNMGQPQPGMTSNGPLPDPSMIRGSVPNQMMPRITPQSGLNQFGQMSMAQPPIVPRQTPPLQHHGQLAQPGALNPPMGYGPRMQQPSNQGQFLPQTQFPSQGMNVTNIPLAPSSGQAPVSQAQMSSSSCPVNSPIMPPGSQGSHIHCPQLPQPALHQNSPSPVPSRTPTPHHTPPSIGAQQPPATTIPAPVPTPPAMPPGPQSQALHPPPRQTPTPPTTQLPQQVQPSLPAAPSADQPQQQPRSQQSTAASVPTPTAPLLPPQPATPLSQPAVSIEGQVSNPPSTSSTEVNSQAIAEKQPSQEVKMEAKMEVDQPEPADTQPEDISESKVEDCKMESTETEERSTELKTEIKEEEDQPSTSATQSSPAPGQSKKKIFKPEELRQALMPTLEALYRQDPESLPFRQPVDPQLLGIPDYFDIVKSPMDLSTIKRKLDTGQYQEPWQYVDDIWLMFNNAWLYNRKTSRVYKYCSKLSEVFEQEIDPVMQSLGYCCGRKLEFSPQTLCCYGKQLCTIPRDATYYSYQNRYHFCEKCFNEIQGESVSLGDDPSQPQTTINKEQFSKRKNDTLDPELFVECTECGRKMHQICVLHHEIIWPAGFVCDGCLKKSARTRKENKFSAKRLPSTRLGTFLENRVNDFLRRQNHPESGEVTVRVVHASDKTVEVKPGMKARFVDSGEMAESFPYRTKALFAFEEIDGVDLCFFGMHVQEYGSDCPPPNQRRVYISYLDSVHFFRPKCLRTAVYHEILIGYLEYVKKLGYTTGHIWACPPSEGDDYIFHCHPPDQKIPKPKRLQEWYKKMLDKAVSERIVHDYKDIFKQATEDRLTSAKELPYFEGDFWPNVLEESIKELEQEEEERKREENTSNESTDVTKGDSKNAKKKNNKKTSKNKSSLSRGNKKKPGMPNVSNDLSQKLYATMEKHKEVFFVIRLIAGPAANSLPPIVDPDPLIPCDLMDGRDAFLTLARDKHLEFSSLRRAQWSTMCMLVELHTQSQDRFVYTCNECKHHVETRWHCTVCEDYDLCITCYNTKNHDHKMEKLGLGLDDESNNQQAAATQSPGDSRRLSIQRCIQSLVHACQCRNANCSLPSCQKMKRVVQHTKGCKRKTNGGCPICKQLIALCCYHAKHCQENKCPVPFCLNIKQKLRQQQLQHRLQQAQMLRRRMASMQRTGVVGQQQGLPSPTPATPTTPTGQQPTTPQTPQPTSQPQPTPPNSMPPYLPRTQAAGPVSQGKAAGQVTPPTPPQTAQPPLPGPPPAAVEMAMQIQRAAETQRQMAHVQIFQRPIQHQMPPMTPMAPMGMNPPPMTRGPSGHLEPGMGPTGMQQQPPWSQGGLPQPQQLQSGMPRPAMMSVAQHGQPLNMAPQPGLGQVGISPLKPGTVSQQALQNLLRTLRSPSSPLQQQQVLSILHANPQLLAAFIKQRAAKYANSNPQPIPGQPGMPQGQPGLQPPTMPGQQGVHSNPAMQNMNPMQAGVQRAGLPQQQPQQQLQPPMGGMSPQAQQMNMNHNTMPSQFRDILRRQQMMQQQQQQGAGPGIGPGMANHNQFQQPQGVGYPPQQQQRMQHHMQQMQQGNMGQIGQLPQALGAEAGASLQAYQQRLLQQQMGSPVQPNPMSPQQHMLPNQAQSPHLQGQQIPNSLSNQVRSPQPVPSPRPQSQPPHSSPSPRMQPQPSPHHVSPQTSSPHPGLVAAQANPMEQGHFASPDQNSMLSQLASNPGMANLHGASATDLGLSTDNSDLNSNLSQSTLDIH
Outline: as §1

T1 sequence (Q92793 whole entry): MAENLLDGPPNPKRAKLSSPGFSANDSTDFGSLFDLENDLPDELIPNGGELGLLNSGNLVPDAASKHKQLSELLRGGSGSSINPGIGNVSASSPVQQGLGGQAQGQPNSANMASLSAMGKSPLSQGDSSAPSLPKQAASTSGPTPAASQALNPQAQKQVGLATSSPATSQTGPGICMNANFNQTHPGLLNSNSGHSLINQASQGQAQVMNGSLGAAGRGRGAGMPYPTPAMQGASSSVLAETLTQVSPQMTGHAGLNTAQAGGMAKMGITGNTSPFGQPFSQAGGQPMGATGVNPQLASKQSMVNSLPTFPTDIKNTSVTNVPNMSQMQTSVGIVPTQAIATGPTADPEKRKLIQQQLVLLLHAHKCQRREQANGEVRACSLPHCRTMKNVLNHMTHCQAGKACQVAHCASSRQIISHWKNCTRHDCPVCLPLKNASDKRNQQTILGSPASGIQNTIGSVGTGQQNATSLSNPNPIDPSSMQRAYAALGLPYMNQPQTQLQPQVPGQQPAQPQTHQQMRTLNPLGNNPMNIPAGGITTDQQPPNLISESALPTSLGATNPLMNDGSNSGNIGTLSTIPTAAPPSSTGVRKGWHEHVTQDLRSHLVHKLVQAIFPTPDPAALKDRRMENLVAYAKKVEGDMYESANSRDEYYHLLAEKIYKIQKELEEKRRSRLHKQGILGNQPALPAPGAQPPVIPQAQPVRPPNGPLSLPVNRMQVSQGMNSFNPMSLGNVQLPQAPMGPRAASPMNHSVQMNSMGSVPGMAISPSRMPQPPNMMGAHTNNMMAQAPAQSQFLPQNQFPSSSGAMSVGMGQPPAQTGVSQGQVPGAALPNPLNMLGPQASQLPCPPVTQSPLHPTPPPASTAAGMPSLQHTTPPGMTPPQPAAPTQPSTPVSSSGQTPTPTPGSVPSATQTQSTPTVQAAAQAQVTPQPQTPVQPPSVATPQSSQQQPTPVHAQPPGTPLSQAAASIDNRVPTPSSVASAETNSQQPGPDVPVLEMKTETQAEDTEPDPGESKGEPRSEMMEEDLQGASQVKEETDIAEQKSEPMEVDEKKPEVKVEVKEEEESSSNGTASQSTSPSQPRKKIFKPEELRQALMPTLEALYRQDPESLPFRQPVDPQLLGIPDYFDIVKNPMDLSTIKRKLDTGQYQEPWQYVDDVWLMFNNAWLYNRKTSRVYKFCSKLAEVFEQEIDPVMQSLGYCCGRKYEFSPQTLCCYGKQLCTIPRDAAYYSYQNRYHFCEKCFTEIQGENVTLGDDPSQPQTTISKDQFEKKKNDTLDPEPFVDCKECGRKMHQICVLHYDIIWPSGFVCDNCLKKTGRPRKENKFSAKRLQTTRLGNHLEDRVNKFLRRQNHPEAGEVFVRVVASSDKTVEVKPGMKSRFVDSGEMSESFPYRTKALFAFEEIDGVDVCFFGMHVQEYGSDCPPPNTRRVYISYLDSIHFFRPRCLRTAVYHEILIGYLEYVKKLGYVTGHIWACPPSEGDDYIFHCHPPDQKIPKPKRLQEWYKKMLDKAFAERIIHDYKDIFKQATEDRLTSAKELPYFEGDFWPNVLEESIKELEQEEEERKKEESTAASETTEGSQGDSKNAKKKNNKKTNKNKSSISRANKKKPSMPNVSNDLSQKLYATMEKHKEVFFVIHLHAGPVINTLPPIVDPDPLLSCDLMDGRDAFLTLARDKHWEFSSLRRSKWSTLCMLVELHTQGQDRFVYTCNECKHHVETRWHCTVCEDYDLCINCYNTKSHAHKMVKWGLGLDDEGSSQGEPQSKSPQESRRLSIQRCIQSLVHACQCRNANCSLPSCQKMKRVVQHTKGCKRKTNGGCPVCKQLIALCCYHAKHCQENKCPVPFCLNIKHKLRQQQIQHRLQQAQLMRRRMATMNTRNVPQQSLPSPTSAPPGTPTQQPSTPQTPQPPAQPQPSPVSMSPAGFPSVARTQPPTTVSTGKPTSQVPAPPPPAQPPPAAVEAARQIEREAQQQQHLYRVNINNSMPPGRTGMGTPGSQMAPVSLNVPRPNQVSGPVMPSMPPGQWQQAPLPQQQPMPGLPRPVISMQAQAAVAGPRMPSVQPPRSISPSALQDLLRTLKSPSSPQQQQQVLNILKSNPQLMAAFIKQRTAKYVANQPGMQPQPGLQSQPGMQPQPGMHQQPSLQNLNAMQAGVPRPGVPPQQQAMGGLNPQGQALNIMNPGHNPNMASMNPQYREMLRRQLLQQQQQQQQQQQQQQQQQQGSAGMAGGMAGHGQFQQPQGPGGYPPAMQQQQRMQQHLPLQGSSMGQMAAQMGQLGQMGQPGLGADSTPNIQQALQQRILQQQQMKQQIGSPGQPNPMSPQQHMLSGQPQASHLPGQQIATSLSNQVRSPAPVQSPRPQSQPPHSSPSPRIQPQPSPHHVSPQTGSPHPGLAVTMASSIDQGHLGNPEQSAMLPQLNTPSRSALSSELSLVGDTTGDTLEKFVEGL

Row | SMILES | DC50 [1] [nM] | Dmax [1] [%] | Dmax [2] [%] | DC50 [2] [nM]
1 | CN1CCN(c2ccc3c(c2)n(C)c(=O)n3C)c2cnc(-c3ccc(C(=O)NCC#Cc4ccc5occ(C6CCC(=O)NC6=O)c5c4)nc3)cc21 (stereo not drawn) [Example A139, 5-(4-(1,3-dimethyl-2-oxo-2,3-dihydro-1H-benzo[d]imidazol-5-yl)-1-methyl-1,2,3,4-tetrahydropyrido[3,4-b]pyrazin-7-yl)-N-(3-(3-(2,6-dioxo-piperidin-3-yl)benzofuran-5-yl)prop-2-yn-1-yl)picolinamide] | > 1000 | < 20 | > 80 | < 1
2 | Cn1c(=O)n(C)c2c(N3CC(C)(O)C3)nc(-c3cccc4cc(-c5ccc(C(=O)NCC#Cc6ccc7occ(C8CCC(=O)NC8=O)c7c6)nc5)ncc34)cc21 (stereo not drawn) [Example A145, N-(3-(3-(2,6-dioxo-piperidin-3-yl)benzofuran-5-yl)prop-2-yn-1-yl)-5-(8-(4-(3-hydroxy-3-methylazetidin-1-yl)-1,3-dimethyl-2-oxo-2,3-dihydro-1H-imidazo[4,5-c]pyridin-6-yl)isoquinolin-3-yl)picolinamide] | > 1000 | < 20 | > 80 | < 1
3 | Cc1cc(-c2cc3cccc(-c4cc5c(c(N6CCOCC6)n4)n(C)c(=O)n5C)c3cn2)cnc1C(=O)NCC#Cc1ccc2occ(C3CCC(=O)NC3=O)c2c1 (stereo not drawn) [Example A150, 5-(8-(1,3-dimethyl-4-morpholino-2-oxo-2,3-dihydro-1H-imidazo[4,5-c]pyridin-6-yl)isoquinolin-3-yl)-N-(3-(3-(2,6-dioxopiperidin-3-yl)benzofuran-5-yl)prop-2-yn-1-yl)-3-methylpicolinamide] | > 1000 | < 20 | > 80 | 1 to 9.9
4 | Cc1cc(-c2cc3cccc(-c4ccc5c(c4)n(C)c(=O)n5C)c3cn2)cnc1C(=O)NCC#Cc1ccc2occ(C3CCC(=O)NC3=O)c2c1 (stereo not drawn) [Example A155, 5-(8-(1,3-dimethyl-2-oxo-2,3-dihydro-1H-benzo[d]imidazol-5-yl)isoquinolin-3-yl)-N-(3-(3-(2,6-dioxo-piperidin-3-yl)benzofuran-5-yl)prop-2-yn-1-yl)-3-methylpicolinamide] | > 1000 | < 20 | > 80 | 1 to 9.9
5 | CC(C)c1cc(-c2cccc3cc(-c4ccc(C(=O)NCC#Cc5ccc6oc(F)c(C7CCC(=O)NC7=O)c6c5)nc4)ncc23)cc2c1n(C)c(=O)n2C (stereo not drawn) [Example A158, N-(3-(3-(2,6-dioxo-piperidin-3-yl)-2-fluorobenzofuran-5-yl)prop-2-yn-1-yl)-5-(8-(7-isopropyl-1,3-dimethyl-2-oxo-2,3-dihydro-1H-benzo [d]imidazol-5-yl)isoquinolin-3-yl)picolinamide] | 10 to 99 | 40 to 59 | > 80 | 1 to 9.9
6 | Cc1cc(N2CCOc3nc(-c4ccc(C(=O)NCC#Cc5cc6c(C7CCC(=O)NC7=O)nccc6o5)nc4)ncc32)cc2c1n(C)c(=O)n2C (stereo not drawn) [Example A160, N-(3-(4-(2,6-dioxo-piperidin-3-yl)furo[3,2-c]pyridin-2-yl)prop-2-yn-1-yl)-5-(5-(1,3,7-trimethyl-2-oxo-2,3-dihydro-1H-benzo[d]imidazol-5-yl)-6,7-dihydro-5H-pyrimido[4,5-b] [1,4]oxazin-2-yl)picolinamide] | > 1000 | < 20 | > 80 | < 1
7 | CC(C)c1cc(N2CCOc3cc(-c4ccc(C(=O)NCC#Cc5ccn6ncc(C7CCC(=O)NC7=O)c6c5)nc4)ncc32)cc2c1n(C)c(=O)n2C (stereo not drawn) [Example A161, N-(3-(3-(2,6-dioxo-piperidin-3-yl)pyrazolo[1,5-a]pyridin-5-yl)prop-2-yn-1-yl)-5-(4-(7-isopropyl-1,3-dimethyl-2-oxo-2,3-dihydro-1H-benzo[d]imidazol-5-yl)-3,4-dihydro-2H-pyrido[4,3-b][1,4]oxazin-7-yl)picolinamide] | 100 to 999 | < 20 | > 80 | < 1
8 | Cn1c(=O)n(C)c2ncc(-c3cccc4cc(-c5ccc(C(=O)NCC#Cc6cc7c(C8CCC(=O)NC8=O)cccc7o6)nc5)ncc34)cc21 (stereo not drawn) [Example A162, 5-(8-(1,3-dimethyl-2-oxo-2,3-dihydro-1H-imidazo[4,5-b]pyridin-6-yl)isoquinolin-3-yl)-N-(3-(4-(2,6-dioxopiperidin-3-yl)benzofuran-2-yl)prop-2-yn-1-yl)picolinamide] | 100 to 999 | < 20 | > 80 | < 1
9 | Cn1c(=O)n(C)c2cc(-c3cccc4cc(-c5ccc(C(=O)NCC#Cc6ccc7nnn(C8CCC(=O)NC8=O)c7c6)nc5)ncc34)ccc21 (stereo not drawn) [Example A163, 5-(8-(1,3-dimethyl-2-oxo-2,3-dihydro-1H-benzo[d]imidazol-5-yl)isoquinolin-3-yl)-N-(3-(1-(2,6-dioxo-piperidin-3-yl)-1H-benzo[d][1,2,3]triazol-6-yl)prop-2-yn-1-yl)picolinamide] | > 1000 | < 20 | > 80 | < 1
10 | CC(C)c1cc(-c2cccc3cc(-c4ccc(C(=O)NCC#Cc5ccc6scc(C7CCC(=O)NC7=O)c6c5)nc4)ncc23)cc2c1n(C)c(=O)n2C (stereo not drawn) [Example A164, N-(3-(3-(2,6-dioxo-piperidin-3-yl)benzo[b]thiophen-5-yl)prop-2-yn-1-yl)-5-(8-(7-isopropyl-1,3-dimethyl-2-oxo-2,3-dihydro-1H-benzo [d]imidazol-5-yl)isoquinolin-3-yl)picolinamide] | > 1000 | < 20 | > 80 | 10 to 99
11 | Cn1c(=O)n(C)c2cc(N3CCOc4nc(-c5ccc(C(=O)NCC#Cc6cc7c(C8CCC(=O)NC8=O)cccc7o6)nc5)ncc43)ccc21 (stereo not drawn) [Example A165, 5-(5-(1,3-dimethyl-2-oxo-2,3-dihydro-1H-benzo[d]imidazol-5-yl)-6,7-dihydro-5H-pyrimido[4,5-b][1,4]oxazin-2-yl)-N-(3-(4-(2,6-dioxopiperidin-3-yl)benzofuran-2-yl)prop-2-yn-1-yl)picolinamide] | > 1000 | < 20 | > 80 | 1 to 9.9
12 | Cn1c(=O)n(C)c2cc(-c3cccc4cc(-c5ccc(C(=O)NCC#Cc6cc7c(C8CCC(=O)NC8=O)cccc7o6)nc5)ncc34)ccc21 (stereo not drawn) [Example A169, 5-(8-(1,3-dimethyl-2-oxo-2,3-dihydro-1H-benzo[d]imidazol-5-yl)isoquinolin-3-yl)-N-(3-(4-(2,6-dioxo-piperidin-3-yl)benzofuran-2-yl)prop-2-yn-1-yl)picolinamide] | > 1000 | < 20 | > 80 | < 1
13 | Cn1c(=O)n(C)c2cc(-c3cccc4cc(-c5ccc(C(=O)NCC#Cc6cc7c([C@H]8CCC(=O)NC8=O)cccc7o6)nc5)ncc34)ccc21 [Example A170, (R)-5-(8-(1,3-dimethyl-2-oxo-2,3-dihydro-1H-benzo[d]imidazol-5-yl)isoquinolin-3-yl)-N-(3-(4-(2,6-dioxo-piperidin-3-yl)benzofuran-2-yl)prop-2-yn-1-yl)picolinamide] | > 1000 | < 20 | > 80 | < 1
14 | Cn1c(=O)n(C)c2cc(-c3cccc4cc(-c5ccc(C(=O)NCC#Cc6cc7c([C@@H]8CCC(=O)NC8=O)cccc7o6)nc5)ncc34)ccc21 [Example A171, (S)-5-(8-(1,3-dimethyl-2-oxo-2,3-dihydro-1H-benzo[d]imidazol-5-yl)isoquinolin-3-yl)-N-(3-(4-(2,6-dioxopiperidin-3-yl)benzofuran-2-yl)prop-2-yn-1-yl)picolinamide] | > 1000 | < 20 | > 80 | 1 to 9.9
15 | CC(C)c1cc(-c2cccc3cc(-c4ccc(C(=O)NCC#Cc5ccn6ncc(C7CCC(=O)NC7=O)c6c5)nc4)ncc23)cc2c1n(C)c(=O)n2C (stereo not drawn) [Example A172, N-(3-(3-(2,6-dioxo-piperidin-3-yl)pyrazolo[1,5-a]pyridin-5-yl)prop-2-yn-1-yl)-5-(8-(7-isopropyl-1,3-dimethyl-2-oxo-2,3-dihydro-1H-benzo[d]imidazol-5-yl)isoquinolin-3-yl)picolinamide] | 100 to 999 | < 20 | > 80 | < 1
16 | Cc1cc(-c2ncc3c(n2)OCCN3c2ccc3c(c2)n(C)c(=O)n3C)cnc1C(=O)NCC#Cc1cc2c(C3CCC(=O)NC3=O)cccc2o1 (stereo not drawn) [Example A173, 5-(5-(1,3-dimethyl-2-oxo-2,3-dihydro-1H-benzo[d]imidazol-5-yl)-6,7-dihydro-5H-pyrimido[4,5-b][1,4]oxazin-2-yl)-N-(3-(4-(2,6-dioxopiperidin-3-yl)benzofuran-2-yl)prop-2-yn-1-yl)-3-methylpicolinamide] | > 1000 | < 20 | > 80 | 1 to 9.9
17 | Cc1cc(-c2ncc3c(n2)OCCN3c2ccc3c(c2)n(C)c(=O)n3C)cnc1C(=O)NCC#Cc1cc2c([C@H]3CCC(=O)NC3=O)cccc2o1 [Example A174, (R)-5-(5-(1,3-dimethyl-2-oxo-2,3-dihydro-1H-benzo [d]imidazol-5-yl)-6,7-dihydro-5H-pyrimido [4,5-b][1,4]oxazin-2-yl)-N-(3-(4-(2,6-dioxopiperidin-3-yl)benzofuran-2-yl)prop-2-yn-1-yl)-3-methylpicolinamide] | > 1000 | < 20 | > 80 | 1 to 9.9
18 | Cc1cc(-c2ncc3c(n2)OCCN3c2ccc3c(c2)n(C)c(=O)n3C)cnc1C(=O)NCC#Cc1cc2c([C@@H]3CCC(=O)NC3=O)cccc2o1 [Example A175, (S)-5-(5-(1,3-dimethyl-2-oxo-2,3-dihydro-1H-benzo[d]imidazol-5-yl)-6,7-dihydro-5H-pyrimido[4,5-b] [1,4]oxazin-2-yl)-N-(3-(4-(2,6-dioxo-piperidin-3-yl)benzofuran-2-yl)prop-2-yn-1-yl)-3-methylpicolinamide] | > 1000 | < 20 | > 80 | 10 to 99
